Measurements taken from patent publication US10640506B2, “Cyclobutyl substituted pyrrolopyridine and pyrrolopyrimidines derivatives as JAK inhibitors” (Incyte Corporation, priority 2010, dated 2020).
Structures can show the parent of a compound that is named as a salt. Where two headings read alike, the source gives them in different places.

Tests used:
JAK2 (a.a. 828-1132) = molecular target: T1, JAK2 (a.a. 828-1132) (Homo sapiens, UniProt O60674); experiment: In vitro JAK kinase assay (HTRF, phosphorylation of biotinylated peptide), JAK2; assay type: biochemical; details: 1 mM ATP
T1 construct: JAK2 (a.a. 828-1132); His tag (N)
Outline: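 HTRF detection (Eu-Py20, SA-APC, 40 min) of biotinylated-peptide phosphorylation, following a 1 hour room-temperature reaction quenched with 45 mM EDTA. Enzymes: insect-cell-expressed N-terminal His-tagged JAK1 (837-1142) and JAK2 (828-1132) catalytic domains. Activities reported in ranged categories.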

[1] = molecular target: human JAK1 (a.a. 837-1142) (Homo sapiens, UniProt P23458); experiment: In vitro JAK kinase assay (HTRF, phosphorylation of biotinylated peptide), JAK1; assay type: biochemical; details: 1 mM ATP
Outline: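 Phosphorylation of a biotinylated peptide was run at room temperature for 1 hour using the N-terminally His-tagged JAK1 kinase domain (837-1142) from insect cells. After an EDTA stop, Eu-Py20 and SA-APC gave an HTRF read; values are binned potency ranges.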

T1 sequence (O60674 828-1132): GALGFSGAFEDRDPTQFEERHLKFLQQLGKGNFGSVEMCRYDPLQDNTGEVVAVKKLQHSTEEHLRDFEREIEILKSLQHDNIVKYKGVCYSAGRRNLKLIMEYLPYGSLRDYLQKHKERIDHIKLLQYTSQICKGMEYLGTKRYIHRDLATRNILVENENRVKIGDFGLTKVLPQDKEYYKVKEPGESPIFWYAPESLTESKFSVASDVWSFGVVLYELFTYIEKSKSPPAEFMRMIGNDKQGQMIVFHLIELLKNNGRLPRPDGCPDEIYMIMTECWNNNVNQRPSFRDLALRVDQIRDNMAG
Sequence of human JAK1 (a.a. 837-1142) (P23458 849-1154): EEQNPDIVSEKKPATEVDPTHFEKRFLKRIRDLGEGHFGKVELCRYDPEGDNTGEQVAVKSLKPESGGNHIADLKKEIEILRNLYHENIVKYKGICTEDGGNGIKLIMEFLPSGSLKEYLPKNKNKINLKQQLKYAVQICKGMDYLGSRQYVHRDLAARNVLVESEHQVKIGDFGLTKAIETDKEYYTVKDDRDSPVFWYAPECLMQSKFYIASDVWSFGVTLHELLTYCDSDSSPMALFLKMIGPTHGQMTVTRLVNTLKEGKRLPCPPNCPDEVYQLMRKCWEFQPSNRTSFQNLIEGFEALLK

IC50 (JAK2 (a.a. 828-1132); Table F) | IC50 ([1]; Table F) | SMILES | further results
25 to 100 nM | < 10 nM | C[C@H](NC(=O)N1CCN([C@H]2C[C@](CC#N)(n3cc(-c4ncnc5[nH]ccc45)cn3)C2)CC1)C1CC1 [Example 96, 4-{trans-3-(cyanomethyl)-3-[4-(7H-pyrrolo[2,3-d]pyrimidin-4-yl)-1H-pyrazol-1-yl]cyclobutyl}-N-[(1S)-1-cyclopropylethyl]piperazine-1-carboxamide] | 
> 100 nM | 10 to 25 nM | CN(C)Cc1cc(OC2CCN([C@H]3C[C@](CC#N)(n4cc(-c5ncnc6[nH]ccc56)cn4)C3)CC2)cc(C(F)F)c1 [Example 140, {trans-3-(4-{3-(difluoromethyl)-5-[(dimethylamino)methyl]phenoxy}piperidin-1-yl)-1-[4-(7H-pyrrolo[2,3-d]pyrimidin-4-yl)-1H-pyrazol-1-yl]cyclobutyl}acetonitrile] | 
> 100 nM | 25 to 100 nM | N#CC[C@]1(n2cc(-c3ncnc4[nH]ccc34)cn2)C[C@H](N2CCN(C(=O)N3CCC[C@@H]3C(F)(F)F)CC2)C1 [Example 116, [trans-1-[4-(7H-pyrrolo[2,3-d]pyrimidin-4-yl)-1H-pyrazol-1-yl]-3-(4-{[(2R)-2-(trifluoromethyl)pyrrolidin-1-yl]carbonyl}piperazin-1-yl)cyclobutyl]acetonitrile] | 
25 to 100 nM | < 10 nM | CN(C)Cc1cc(C#N)cc(C(=O)N2CCN([C@H]3C[C@](CC#N)(n4cc(-c5ncnc6[nH]ccc56)cn4)C3)CC2)c1 [Example 136, 3-[(4-{trans-3-(cyanomethyl)-3-[4-(7H-pyrrolo[2,3-d]pyrimidin-4-yl)-1H-pyrazol-1-yl]cyclobutyl}piperazin-1-yl)carbonyl]-5-[(dimethylamino)methyl]benzonitrile] | 
 |  | N#CC[C@]1(n2cc(-c3ncnc4[nH]ccc34)cn2)C[C@@H](N2CCN(C(=O)c3ccnc(C(F)F)c3F)CC2)C1 [Example 11a, {cis-3-{4-[2-(difluoromethyl)-3-fluoroisonicotinoyl]piperazin-1-yl}-1-[4-(7H-pyrrolo[2,3-d]pyrimidin-4-yl)-1H-pyrazol-1-yl]cyclobutyl}acetonitrile] | IC50 (JAK2 (a.a. 828-1132); Table A, read-out: JAK2 IC50): > 100 nM; IC50 ([1]; Table A, read-out: JAK1 IC50): 10 to 25 nM
 |  | N#CC[C@]1(n2cc(-c3ncnc4[nH]ccc34)cn2)C[C@H](N2CCN(C(=O)c3ccc(C(F)(F)F)cc3F)CC2)C1 [Example 18, {trans-3-{4-[2-fluoro-4-(trifluoromethyl)benzoyl]piperazin-1-yl}-1-[4-(7H-pyrrolo[2,3-d]pyrimidin-4-yl)-1H-pyrazol-1-yl]cyclobutyl}acetonitrile 2.3×(trifluoroacetate) Salt] | IC50 (JAK2 (a.a. 828-1132); Table B, read-out: JAK2 IC50): 10 to 25 nM; IC50 ([1]; Table B, read-out: JAK1 IC50): < 10 nM
 |  | N#CC[C@]1(n2cc(-c3ncnc4[nH]ccc34)cn2)C[C@@H](N2CCN(C(=O)c3ncc(C(F)(F)F)cc3F)CC2)C1 [Example 27, {cis-3-(4-{[3-fluoro-5-(trifluoromethyl)pyridin-2-yl]carbonyl}piperazin-1-yl)-1-[4-(7H-pyrrolo[2,3-d]pyrimidin-4-yl)-1H-pyrazol-1-yl]cyclobutyl}acetonitrile] | IC50 (JAK2 (a.a. 828-1132); Table A, read-out: JAK2 IC50): 25 to 100 nM; IC50 ([1]; Table A, read-out: JAK1 IC50): < 10 nM
25 to 100 nM | 10 to 25 nM | CNC(=O)N1CCN([C@H]2C[C@](CC#N)(n3cc(-c4ncnc5[nH]ccc45)cn3)C2)CC1 [Example 112, 4-{trans-3-(cyanomethyl)-3-[4-(7H-pyrrolo[2,3-d]pyrimidin-4-yl)-1H-pyrazol-1-yl]cyclobutyl}-N-methylpiperazine-1-carboxamide] | 
> 100 nM | 25 to 100 nM | CC(C)(C)NCc1cc(OC2CCN([C@H]3C[C@@](CC#N)(n4cc(-c5ncnc6[nH]ccc56)cn4)C3)CC2)nc(C(F)(F)F)c1 [Example 128, {cis-3-(4-{[4-[(tert-butylamino)methyl]-6-(trifluoromethyl)pyridin-2-yl]oxy}piperidin-1-yl)-1-[4-(7H-pyrrolo[2,3-d]pyrimidin-4-yl)-1H-pyrazol-1-yl]cyclobutyl}acetonitrile] | 
 |  | CC(C)c1nccc(C(=O)N2CCN([C@H]3C[C@@](CC#N)(n4cc(-c5ncnc6[nH]ccc56)cn4)C3)CC2)n1 [Example 24a, {cis-3-{4-[(2-isopropylpyrimidin-4-yl)carbonyl]piperazin-1-yl}-1-[4-(7H-pyrrolo[2,3-d]pyrimidin-4-yl)-1H-pyrazol-1-yl]cyclobutyl}acetonitrile] | IC50 (JAK2 (a.a. 828-1132); Table A, read-out: JAK2 IC50): > 100 nM; IC50 ([1]; Table A, read-out: JAK1 IC50): 10 to 25 nM
25 to 100 nM | 10 to 25 nM | N#CC[C@]1(n2cc(-c3ncnc4[nH]ccc34)cn2)C[C@H](N2CCC(Oc3cc(CN)nc(C(F)(F)F)n3)CC2)C1 [Example 147, {trans-3-(4-{[6-(aminomethyl)-2-(trifluoromethyl)pyrimidin-4-yl]oxy}piperidin-1-yl)-1-[4-(7H-pyrrolo[2,3-d]pyrimidin-4-yl)-1H-pyrazol-1-yl]cyclobutyl}acetonitrile] | 
25 to 100 nM | < 10 nM | N#CC[C@]1(n2cc(-c3ncnc4[nH]ccc34)cn2)C[C@H](N2CCC(Oc3cc(CNCCCO)cc(C(F)(F)F)n3)CC2)C1 [Example 155, {trans-3-(4-{[4-{[(3-hydroxypropyl)amino]methyl}-6-(trifluoromethyl)pyridin-2-yl]oxy}piperidin-1-yl)-1-[4-(7H-pyrrolo[2,3-d]pyrimidin-4-yl)-1H-pyrazol-1-yl]cyclobutyl}acetonitrile] | 
 |  | CN(C)c1ccc(CN2CCN([C@H]3C[C@@](CC#N)(n4cc(-c5ncnc6[nH]ccc56)cn4)C3)CC2)c(F)c1C#N [Example 2a, 3-[(4-{cis-3-(cyanomethyl)-3-[4-(7H-pyrrolo[2,3-d]pyrimidin-4-yl)-1H-pyrazol-1-yl]cyclobutyl}piperazin-1-yl)methyl]-6-(dimethylamino)-2-fluorobenzonitrile] | IC50 (JAK2 (a.a. 828-1132); Table A, read-out: JAK2 IC50): 25 to 100 nM; IC50 ([1]; Table A, read-out: JAK1 IC50): < 10 nM
> 100 nM | 25 to 100 nM | CN(CC(F)(F)F)C(=O)N1CCN([C@H]2C[C@](CC#N)(n3cc(-c4ncnc5[nH]ccc45)cn3)C2)CC1 [Example 84, 4-{trans-3-(cyanomethyl)-3-[4-(7H-pyrrolo[2,3-d]pyrimidin-4-yl)-1H-pyrazol-1-yl]cyclobutyl}-N-methyl-N-(2,2,2-trifluoroethyl)piperazine-1-carboxamide] | 
25 to 100 nM | < 10 nM | N#CC[C@]1(n2cc(-c3ncnc4[nH]ccc34)cn2)C[C@H](N2CCC(Oc3cc(CN4CCOCC4)cc(C(F)(F)F)n3)CC2)C1 [Example 159, {trans-3-(4-{[4-(morpholin-4-ylmethyl)-6-(trifluoromethyl)pyridin-2-yl]oxy}piperidin-1-yl)-1-[4-(7H-pyrrolo[2,3-d]pyrimidin-4-yl)-1H-pyrazol-1-yl]cyclobutyl}acetonitrile] | 
 |  | CN(C)C(=O)N1CCN([C@H]2C[C@](CC#N)(n3cc(-c4ncnc5[nH]ccc45)cn3)C2)CC1 [Example 32, 4-{trans-3-(cyanomethyl)-3-[4-(7H-pyrrolo[2,3-d]pyrimidin-4-yl)-1H-pyrazol-1-yl]cyclobutyl}-N,N-dimethylpiperazine-1-carboxamide] | IC50 (JAK2 (a.a. 828-1132); Table B, read-out: JAK2 IC50): > 100 nM; IC50 ([1]; Table B, read-out: JAK1 IC50): < 10 nM
25 to 100 nM | < 10 nM | CC(C)(O)c1cc(C(=O)N2CCN([C@H]3C[C@](CC#N)(n4cc(-c5ccnc6[nH]ccc56)cn4)C3)CC2)nc(C(F)(F)F)n1 [Example 78, {trans-3-(4-{[6-(1-hydroxy-1-methylethyl)-2-(trifluoromethyl)pyrimidin-4-yl]carbonyl}piperazin-1-yl)-1-[4-(1H-pyrrolo[2,3-b]pyridin-4-yl)-1H-pyrazol-1-yl]cyclobutyl}acetonitrile] | 
 |  | N#CC[C@]1(n2cc(-c3ncnc4[nH]ccc34)cn2)C[C@@H](N2CCN(C(=O)c3ccc(F)c(F)c3)CC2)C1 [Example 15a, {cis-3-[4-(3,4-difluorobenzoyl)piperazin-1-yl]-1-[4-(7H-pyrrolo[2,3-d]pyrimidin-4-yl)-1H-pyrazol-1-yl]cyclobutyl}acetonitrile] | IC50 (JAK2 (a.a. 828-1132); Table A, read-out: JAK2 IC50): 25 to 100 nM; IC50 ([1]; Table A, read-out: JAK1 IC50): < 10 nM
> 100 nM | 10 to 25 nM | CC(C)NC(=O)N1CCN([C@H]2C[C@@](CC#N)(n3cc(-c4ncnc5[nH]ccc45)cn3)C2)CC1 [Example 108, 4-{cis-3-(cyanomethyl)-3-[4-(7H-pyrrolo[2,3-d]pyrimidin-4-yl)-1H-pyrazol-1-yl]cyclobutyl}-N-isopropylpiperazine-1-carboxamide] | 
25 to 100 nM | < 10 nM | N#CC[C@]1(n2cc(-c3ncnc4[nH]ccc34)cn2)C[C@H](N2CCN(C(N)=O)CC2)C1 [Example 95, 4-{trans-3-(cyanomethyl)-3-[4-(7H-pyrrolo[2,3-d]pyrimidin-4-yl)-1H-pyrazol-1-yl]cyclobutyl}piperazine-1-carboxamide] | 
< 10 nM | < 10 nM | CNC1(c2cc(C(=O)N3CCN([C@H]4C[C@](CC#N)(n5cc(-c6ncnc7[nH]ccc67)cn5)C4)CC3)nc(C(F)(F)F)n2)CCC1 [Example 70, {trans-3-(4-{[6-[1-(methylamino)cyclobutyl]-2-(trifluoromethyl)pyrimidin-4-yl]carbonyl}piperazin-1-yl)-1-[4-(7H-pyrrolo[2,3-d]pyrimidin-4-yl)-1H-pyrazol-1-yl]cyclobutyl}acetonitrile] | 
25 to 100 nM | 10 to 25 nM | CC[C@@H](C)NC(=O)N1CCN([C@H]2C[C@@](CC#N)(n3cc(-c4ncnc5[nH]ccc45)cn3)C2)CC1 [Example 105, 4-{cis-3-(cyanomethyl)-3-[4-(7H-pyrrolo[2,3-d]pyrimidin-4-yl)-1H-pyrazol-1-yl]cyclobutyl}-N-[(1R)-1-methylpropyl]piperazine-1-carboxamide] | 
